We go through 21 compounds from paper PMC9972480, “Synthesis of Quinoline and Dihydroquinoline Embelin Derivatives as Cardioprotective Agents” (Journal of Natural Products, 2023).

Series [1] is described as follows: MTT cell viability assay (cytotoxicity) in J774 macrophages. The class given is cell-based, murine. The following applies: mouse. The method, then:
(§1) The potential cytotoxicity of embelin (1) together with derivatives (4a–4m, 5a–5d, 6a–6m) was tested in cardiomyocytes and macrophages in order to ensure that compounds lack toxicity also in immune cells. Cell viability was determined by the MTT assay.[58] Four dihydroquinoline derivatives (4b, 4f, 4i, and 4m) and six quinoline compounds (6a, 6d, 6e, 6i, 6k, and 6m) maintained higher viable cell rates in both types of cells. IC50 values of these derivatives were higher than 40 μM and were selected for further analysis.
(§2) J774A.1 murine macrophage cells, H9c2 embryonic rat heart-derived cells, and MCF-7 breast cancer cells were purchased from American Type Cell Culture (ATCC, Manassas, VA, USA). Cells were cultured in Dulbecco’s modified Eagle medium with 10% fetal bovine serum and 1% penicillin/streptomycin (Lonza) and were maintained at 37 °C in a humidified incubator containing 5% CO2.
(§3) Cell viability was assessed by conducting an MTT [3-(4,5-dimethylthiazol-2-yl)-2,5-diphenyltetrazolium bromide dye] assay. Briefly, J 774A.1, H9c2, and MCF7 cells were seeded in 96-well plates for 24 h. Then, cells were treated with DOX in the absence or presence of compounds. MTT (Sigma) reagent was added to the medium for 1 h at 37 °C. Then, the formazan was dissolved in dimethyl sulfoxide (DMSO, 100 μL). Absorbance was measured at 540 nm with a microplate reader (BMG Labtech).
For orientation: Tetrazolium assays rely on reduction of a dye to a coloured formazan, in cell work by metabolically active cells.

The nature of series [2]: MTT cell viability assay (cytotoxicity) in H9c2 cardiomyocytes. Particulars: rat, H9c2 cardiomyocytes, 24 h, MTT; for viability at 24 h, 10 µM / viability at 24 h, 20 µM: mean ± SD, n = 3; for IC50 at 24 h: H9c2 cardiomyocytes (embryonic heart-derived cells), stated for both types of cells. The class given is cell-based, rat. The method, then: as §1, §2, §3

One may read the viability as a read-out of living cells in per cent, often relative to untreated cells. Take `CCCCCCCCCCCC1=C(O)C(=O)C=C(O)C1=O` [Compound 1, embelin]: the viability at 24 h, 10 µM in series [1] (J774 macrophages, 10 μM, 24 h, MTT, mean ± SD, n = 3, read-out: Cell viability (%) J774 macrophages 10 μM) amounted to 21.3 ± 2.7%; in series [2] it was 36.9 ± 5.8%. Also, the viability at 24 h, 20 µM in series [1] (J774 macrophages, 20 μM, 24 h, MTT, mean ± SD, n = 3, read-out: Cell viability (%) J774 macrophages 20 μM) was 15.3 ± 0.8%; in series [2] it was 8.3 ± 0.1%.
One may read the melting point as the temperature, or range, at which the solid turns liquid. As for `CCCCCCCCCCCC1=C(O)C(=O)C2=C(Nc3ccccc3C2c2ccc([N+](=O)[O-])cc2)C1=O` (stereo not drawn) [Compound 4a, 2-Hydroxy-9-(4-nitrophenyl)-3-undecyl-9,10-dihydroacridine-1,4-dione], the melting point lay in the range of 164 to 166 °C. In series [1], this compound gave a viability at 24 h, 10 µM of 50 ± 5.6% and a viability at 24 h, 20 µM of 43.7 ± 2%. In series [2], this compound registered a viability at 24 h, 10 µM of 94.8 ± 3.5% and a viability at 24 h, 20 µM of 89.4 ± 0.6%.
What is called IC50 is the point on the concentration scale where inhibition reaches its midpoint. Higher therefore signals a need for much substance. Turning to `CCCCCCCCCCCC1=C(O)C(=O)C2=C(Nc3ccccc3C2c2ccccc2)C1=O` (stereo not drawn) [Compound 4b, 2-Hydroxy-9-phenyl-3-undecyl-9,10-dihydroacridine-1,4-dione], the melting point lay within 161 to 162 °C. In series [1], this compound came in with an IC50 at 24 h of more than 40 µM; a viability at 24 h, 10 µM of 99.7 ± 1.1%; a viability at 24 h, 20 µM of 98.7 ± 1.2%. In series [2], the IC50 at 24 h is more than 40 µM; the viability at 24 h, 10 µM turned out to be 98.1 ± 6.8%; the viability at 24 h, 20 µM turned out to be 95.8 ± 7.7%.
Regarding `CCCCCCCCCCCC1=C(O)C(=O)C2=C(Nc3ccccc3C2c2ccc(Cl)cc2)C1=O` (stereo not drawn) [Compound 4c, 2-Hydroxy-9-(4-chlorophenyl)-3-undecyl-9,10-dihydroacridine-1,4-dione], the melting point was 139 to 141 °C. Moreover, in series [1], the viability at 24 h, 10 µM is 49.1 ± 3.4% and the viability at 24 h, 20 µM turned out to be 39.5 ± 3.6%. In series [2], this compound had a viability at 24 h, 10 µM of 98.9 ± 3.4% and a viability at 24 h, 20 µM of 93.9 ± 2.3%.
`CCCCCCCCCCCC1=C(O)C(=O)C2=C(Nc3ccccc3C2c2ccc(Br)cc2)C1=O` (stereo not drawn) [Compound 4d, 2-Hydroxy-9-(4-bromophenyl)-3-undecyl-9,10-dihydroacridine-1,4-dione]: the melting point is 139 to 140 °C. For the same compound, in series [1], the viability at 24 h, 10 µM is 38.5 ± 5.9% and the viability at 24 h, 20 µM is 32.9 ± 3.4%. In series [2], the viability at 24 h, 10 µM was 99.5 ± 2.7% and the viability at 24 h, 20 µM came to 98.9 ± 6.1%.
Regarding `CCCCCCCCCCCC1=C(O)C(=O)C2=C(Nc3ccccc3C2c2ccc(F)cc2)C1=O` (stereo not drawn) [Compound 4e, 2-Hydroxy-9-(4-fluorophenyl)-3-undecyl-9,10-dihydroacridine-1,4-dione], the melting point fell in the range of 140 to 142 °C. In series [1], this compound displayed a viability at 24 h, 10 µM of 57.3 ± 3.8% and a viability at 24 h, 20 µM of 44.6 ± 3.3%. Also, in series [2], the viability at 24 h, 10 µM came out at 93.4 ± 7.2% and the viability at 24 h, 20 µM was 83.7 ± 1.5%.
In the case of `CCCCCCCCCCCC1=C(O)C(=O)C2=C(Nc3ccccc3C2c2cccc(F)c2)C1=O` (stereo not drawn) [Compound 4f, 2-Hydroxy-9-(3-fluorophenyl)-3-undecyl-9,10-dihydroacridine-1,4-dione], the melting point is 240 to 242 °C. In series [1], this compound came in with an IC50 at 24 h of more than 40 µM; a viability at 24 h, 10 µM of 99.5 ± 1.3%; a viability at 24 h, 20 µM of 97.8 ± 0.6%. In series [2], this compound gave a concentration for half-maximal inhibition (IC50) at 24 h of more than 40 µM; a viability at 24 h, 10 µM of 88.7 ± 5.3%; a viability at 24 h, 20 µM of 81.1 ± 2.9%.
For `CCCCCCCCCCCC1=C(O)C(=O)C2=C(Nc3ccccc3C2c2ccc(C(=O)OC)cc2)C1=O` (stereo not drawn) [Compound 4g, Methyl 4-(2-hydroxy-1,4-dioxo-3-undecyl-1,4,9,10-tetrahydroacridin-9-yl)benzoate], the melting point lay in the range of 146 to 148 °C. In addition, in series [1], the viability at 24 h, 10 µM stood at 31.2 ± 5.3% and the viability at 24 h, 20 µM came out at 29.6 ± 3.9%. In series [2], this compound registered a viability at 24 h, 10 µM of 72.6 ± 1.1% and a viability at 24 h, 20 µM of 62.1 ± 1.3%.
In series [1], `CCCCCCCCCCCC1=C(O)C(=O)C=C(Nc2ccccc2)C1=O` [Compound 5a, 2-Hydroxy-5-(phenylamino)-3-undecylcyclohexa-2,5-diene-1,4-dione] came in with a viability at 24 h, 10 µM of 56.9 ± 4% and a viability at 24 h, 20 µM of 56.2 ± 2%. In series [2], this compound gave a viability at 24 h, 10 µM of 99 ± 7.1% and a viability at 24 h, 20 µM of 83 ± 7%.
`CCCCCCCCCCCC1=C(O)C(=O)C=C(Nc2ccc(OC)cc2)C1=O` [Compound 5b, 2-Hydroxy-5-((4-methoxyphenyl)amino)-3-undecylcyclohexa-2,5-diene-1,4-dione]: in series [1], the viability at 24 h, 10 µM came out at 68.4 ± 3.8% and the viability at 24 h, 20 µM is 48.3 ± 1.7%. In addition, in series [2], the viability at 24 h, 10 µM was found to be 89.3 ± 9.2% and the viability at 24 h, 20 µM worked out at 87.4 ± 6.7%.
In the same order, the values of `CCCCCCCCCCCC1=C(O)C(=O)C=C(Nc2ccc(Br)cc2)C1=O` [Compound 5c, 5-((4-Bromophenyl)amino)-2-hydroxy-3-undecylcyclohexa-2,5-diene-1,4-dione] are 56.9 ± 5.5%, 39.4 ± 5.3%, 61.9 ± 2.7% and 56.1 ± 3.4%.
Consider `CCCCCCCCCCCC1=C(O)C(=O)C=C(Nc2cccc([N+](=O)[O-])c2)C1=O` [Compound 5d, 2-Hydroxy-5-((3-nitrophenyl)amino)-3-undecylcyclohexa-2,5-diene-1,4-dione], for which, in series [1], the viability at 24 h, 10 µM came to 65.5 ± 1.9% and the viability at 24 h, 20 µM was determined as 50.8 ± 7%. For the same compound, in series [2], the viability at 24 h, 10 µM was 67.8 ± 2.1% and the viability at 24 h, 20 µM was 57.5 ± 1.4%.
Regarding `CCCCCCCCCCCC1=C(O)C(=O)c2c(nc3ccccc3c2-c2ccccc2)C1=O` [Compound 6b, 2-Hydroxy-9-phenyl-3-undecylacridine-1,4-dione], the viability at 24 h, 10 µM came to 81.8 ± 4.7% in series [1] and 99.7 ± 2.1% in series [2]. In addition, the viability at 24 h, 20 µM in series [1] is 63.9 ± 6.6%; in series [2], 68.1 ± 4.6%.
`CCCCCCCCCCCC1=C(O)C(=O)c2c(nc3ccccc3c2-c2ccc(Cl)cc2)C1=O` [Compound 6c, 2-Hydroxy-9-(4-chlorophenyl)-3-undecylacridine-1,4-dione]: the figures for the viability at 24 h, 10 µM in series [1] and in series [2] were 83.4 ± 0.5% and 95 ± 8.4%, respectively. In addition, the viability at 24 h, 20 µM is 55.8 ± 5.7% in series [1] and 74.3 ± 4.8% in series [2].
In series [1], `CCCCCCCCCCCC1=C(O)C(=O)c2c(nc3ccccc3c2-c2ccc(F)cc2)C1=O` [Compound 6e, 2-Hydroxy-9-(4-fluorophenyl)-3-undecylacridine-1,4-dione] returned an IC50 at 24 h of more than 40 µM; a viability at 24 h, 10 µM of 93.1 ± 4.5%; a viability at 24 h, 20 µM of 76.6 ± 5.9%. For the same compound, in series [2], the IC50 at 24 h is more than 40 µM; the viability at 24 h, 10 µM is 96.7 ± 8.1%; the viability at 24 h, 20 µM is 93.9 ± 0.9%.
For `CCCCCCCCCCCC1=C(O)C(=O)c2c(nc3ccccc3c2-c2cccc(F)c2)C1=O` [Compound 6f, 2-Hydroxy-9-(3-fluorophenyl)-3-undecylacridine-1,4-dione], the viability at 24 h, 10 µM in series [1] came out at 79.3 ± 4.6%; in series [2], 98.3 ± 4.9%. Further, the viability at 24 h, 20 µM in series [1] was found to be 62.2 ± 4.3%; in series [2], 84.5 ± 4.3%.
Consider `CCCCCCCCCCCC1=C(O)C(=O)c2c(nc3ccccc3c2-c2ccc(C(=O)OC)cc2)C1=O` [Compound 6g, Methyl 4-(2-hydroxy-1,4-dioxo-3-undecyl-1,4-dihydroacridin-9-yl)benzoate], for which the viability at 24 h, 10 µM in series [1] amounted to 78.4 ± 5.7%; in series [2], 88.7 ± 10.4%. Further, the viability at 24 h, 20 µM in series [1] amounted to 42.2 ± 0.3%; in series [2], 70.6 ± 3%.
In series [1], `CCCCCCCCCCCC1=C(O)C(=O)c2c(nc3ccccc3c2-c2ccsc2)C1=O` [Compound 6h, 2-Hydroxy-9-(thiophen-3-yl)-3-undecylacridine-1,4-dione] displayed a viability at 24 h, 10 µM of 73.5 ± 2.8% and a viability at 24 h, 20 µM of 56.7 ± 3.3%. In series [2], this compound came in with a viability at 24 h, 10 µM of 75.3 ± 5% and a viability at 24 h, 20 µM of 71.1 ± 2.8%.
For `CCCCCCCCCCCC1=C(O)C(=O)c2c(nc3ccccc3c2-c2ccc(C)c(C)c2)C1=O` [Compound 6i, 2-Hydroxy-9-(3,4-dimethylphenyl)-3-undecylacridine-1,4-dione], in series [1], the IC50 at 24 h was more than 40 µM; the viability at 24 h, 10 µM was 93.3 ± 4.3%; the viability at 24 h, 20 µM was 75.1 ± 2.9%. In series [2], this compound came in with an IC50 at 24 h of more than 40 µM; a viability at 24 h, 10 µM of 99.8 ± 3%; a viability at 24 h, 20 µM of 92.6 ± 5.4%.
In series [1], `CCCCCCCCCCCC1=C(O)C(=O)c2c(nc3ccccc3c2-c2ccc(OC)c(OC)c2)C1=O` [Compound 6j, 2-Hydroxy-9-(3,4-dimethoxyphenyl)-3-undecylacridine-1,4-dione] yielded a viability at 24 h, 10 µM of 85.2 ± 3.7% and a viability at 24 h, 20 µM of 64 ± 2.6%. In series [2], this compound had a viability at 24 h, 10 µM of 85.5 ± 6.2% and a viability at 24 h, 20 µM of 68.4 ± 8.6%.
Regarding `CCCCCCCCCCCC1=C(O)C(=O)c2c(nc3cc(C)cc(C)c3c2-c2ccc([N+](=O)[O-])cc2)C1=O` [Compound 6l, 2-Hydroxy-6,8-dimethyl-9-(4-nitrophenyl)-3-undecylacridine-1,4-dione], in series [1], the viability at 24 h, 10 µM was found to be 82.3 ± 0.3% and the viability at 24 h, 20 µM worked out at 63.8 ± 4.8%. In series [2], this compound had a viability at 24 h, 10 µM of 64.8 ± 6.7% and a viability at 24 h, 20 µM of 55.9 ± 9.4%.
